In the supplement of paper PMC10307832:

Legend:
Assay in all cases: relative viability (nuclei count vs DMSO), 5 days (fraction); higher = more cells survive
NCI-H1993 = system: NCI-H1993
Outline: (§1)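 Lung cancer cell lines in 1536-well plates got either a single drug or a fixed anchor-drug dose together with five library-drug doses (not always all listed) in √10 steps, by pin tool, on the day after seeding. Nuclei were counted after 5 days, and relative viability is the treated-to-vehicle ratio of nuclei counts. Values are medians of duplicate plates.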

LXF-289 = system: LXF-289
Outline: as §1

NCI-H2023 = system: NCI-H2023
Outline: as §1

COR-L 105 = system: COR-L 105
Outline: as §1

HOP-62 = system: HOP-62
Outline: as §1

ChaGo-K-1 = system: ChaGo-K-1
Outline: as §1

HCC-15 = system: HCC-15
Outline: as §1

EPLC-272H = system: EPLC-272H
Outline: as §1

EMC-BAC-2 = system: EMC-BAC-2
Outline: as §1

NCI-H441 = system: NCI-H441
Outline: as §1

UMC-11 = system: UMC-11
Outline: as §1

HCC-78 = system: HCC-78
Outline: as §1

NCI-H1915 = system: NCI-H1915
Outline: as §1

NCI-H1755 = system: NCI-H1755
Outline: as §1

ABC-1 = system: ABC-1
Outline: as §1

NCI-H1666 = system: NCI-H1666
Outline: as §1

NCI-H2126 = system: NCI-H2126
Outline: as §1

NCI-H322M = system: NCI-H322M
Outline: as §1

NCI-H2085 = system: NCI-H2085
Outline: as §1

NCI-H1975 = system: NCI-H1975
Outline: as §1

CAL-12T = system: CAL-12T
Outline: as §1

NCI-H3122 = system: NCI-H3122
Outline: as §1

Oc1nc(-c2ccc(C(F)(F)F)cc2)nc2c1CSCC2 [XAV939] + CC(C)C[C@H](NC(=O)[C@H](Cc1ccccc1)NC(=O)c1cnccn1)B(O)O [Bortezomib] (partner 0.002 µM)
relative viability (NCI-H1993; first compound 0.8 µM): 0.972
relative viability (NCI-H1993; first compound 2.53 µM): 0.891
relative viability (LXF-289; first compound 0.08 µM): 1.05
relative viability (LXF-289; first compound 0.253 µM): 0.966
relative viability (LXF-289; first compound 0.8 µM): 0.994
relative viability (LXF-289; first compound 2.53 µM): 1.05
relative viability (NCI-H2023; first compound 0.08 µM): 1.11
relative viability (NCI-H2023; first compound 0.253 µM): 0.785
relative viability (NCI-H2023; first compound 0.8 µM): 0.833
relative viability (NCI-H2023; first compound 2.53 µM): 0.792
relative viability (COR-L 105; first compound 0.08 µM): 0.853
relative viability (COR-L 105; first compound 0.253 µM): 0.755
relative viability (COR-L 105; first compound 0.8 µM): 0.618
relative viability (COR-L 105; first compound 2.53 µM): 0.567
relative viability (HOP-62; first compound 0.08 µM): 1.19
relative viability (HOP-62; first compound 0.253 µM): 0.73
relative viability (HOP-62; first compound 0.8 µM): 0.988
relative viability (HOP-62; first compound 2.53 µM): 0.352
relative viability (ChaGo-K-1; first compound 0.08 µM): 0.967
relative viability (ChaGo-K-1; first compound 0.253 µM): 0.848
relative viability (ChaGo-K-1; first compound 0.8 µM): 0.981
relative viability (ChaGo-K-1; first compound 2.53 µM): 0.941
relative viability (HCC-15; first compound 0.08 µM): 1.2
relative viability (HCC-15; first compound 0.253 µM): 0.938
relative viability (HCC-15; first compound 0.8 µM): 1.05
relative viability (HCC-15; first compound 2.53 µM): 1.06
relative viability (EPLC-272H; first compound 0.08 µM): 1.05
relative viability (EPLC-272H; first compound 0.253 µM): 0.816
relative viability (EPLC-272H; first compound 0.8 µM): 1.02
relative viability (EPLC-272H; first compound 2.53 µM): 0.91
relative viability (EMC-BAC-2; first compound 0.08 µM): 1.11
relative viability (EMC-BAC-2; first compound 0.253 µM): 0.946
relative viability (EMC-BAC-2; first compound 0.8 µM): 0.997
relative viability (EMC-BAC-2; first compound 2.53 µM): 0.636
relative viability (NCI-H441; first compound 0.08 µM): 0.45
relative viability (NCI-H441; first compound 0.253 µM): 0.401
relative viability (NCI-H441; first compound 0.8 µM): 0.572
relative viability (NCI-H441; first compound 2.53 µM): 0.681
relative viability (UMC-11; first compound 0.08 µM): 0.789
relative viability (UMC-11; first compound 0.8 µM): 0.754
relative viability (UMC-11; first compound 2.53 µM): 0.708
relative viability (HCC-78; first compound 0.08 µM): 0.517
relative viability (HCC-78; first compound 0.253 µM): 0.363
relative viability (HCC-78; first compound 0.8 µM): 0.526
relative viability (HCC-78; first compound 2.53 µM): 0.405
relative viability (NCI-H1915; first compound 0.08 µM): 1.06
relative viability (NCI-H1915; first compound 0.253 µM): 0.974
relative viability (NCI-H1915; first compound 0.8 µM): 0.983
relative viability (NCI-H1915; first compound 2.53 µM): 1.14
relative viability (NCI-H1755; first compound 0.08 µM): 0.91
relative viability (NCI-H1755; first compound 0.253 µM): 0.884
relative viability (NCI-H1755; first compound 0.8 µM): 0.86
relative viability (NCI-H1755; first compound 2.53 µM): 0.868
relative viability (ABC-1; first compound 0.08 µM): 0.315
relative viability (ABC-1; first compound 0.253 µM): 0.307
relative viability (ABC-1; first compound 0.8 µM): 0.254
relative viability (ABC-1; first compound 2.53 µM): 0.252
relative viability (NCI-H1666; first compound 0.08 µM): 0.813
relative viability (NCI-H1666; first compound 0.253 µM): 0.611
relative viability (NCI-H1666; first compound 0.8 µM): 0.422
relative viability (NCI-H1666; first compound 2.53 µM): 0.5
relative viability (NCI-H2126; first compound 0.08 µM): 1.18
relative viability (NCI-H2126; first compound 0.253 µM): 0.984
relative viability (NCI-H2126; first compound 0.8 µM): 1.08
relative viability (NCI-H2126; first compound 2.53 µM): 1.02
relative viability (NCI-H322M; first compound 0.08 µM): 1.39
relative viability (NCI-H322M; first compound 0.253 µM): 0.996
relative viability (NCI-H322M; first compound 0.8 µM): 1.1
relative viability (NCI-H322M; first compound 2.53 µM): 0.976
relative viability (NCI-H2085; first compound 0.08 µM): 1.02
relative viability (NCI-H2085; first compound 0.253 µM): 1.03
relative viability (NCI-H2085; first compound 0.8 µM): 0.975
relative viability (NCI-H2085; first compound 2.53 µM): 0.992
relative viability (NCI-H1975; first compound 0.08 µM): 0.305
relative viability (NCI-H1975; first compound 0.253 µM): 0.352
relative viability (NCI-H1975; first compound 0.8 µM): 0.346
relative viability (NCI-H1975; first compound 2.53 µM): 0.349
relative viability (CAL-12T; first compound 0.08 µM): 0.981
relative viability (CAL-12T; first compound 0.253 µM): 0.856
relative viability (CAL-12T; first compound 0.8 µM): 0.89
relative viability (CAL-12T; first compound 2.53 µM): 0.977
relative viability (NCI-H3122; first compound 0.08 µM): 1.09
relative viability (NCI-H3122; first compound 0.253 µM): 1.01
relative viability (NCI-H3122; first compound 0.8 µM): 1.03
relative viability (NCI-H3122; first compound 2.53 µM): 0.944
